The values that follow come from article PMC8396542, “Iterated Virtual Screening-Assisted Antiviral and Enzyme Inhibition Assays Reveal the Discovery of Novel Promising Anti-SARS-CoV-2 with Dual Activity” (International Journal of Molecular Sciences, 2021).

One assay has as its target T1, human furin (Homo sapiens, UniProt P09958).
T1 construct: recombinant furin from BPS Bioscience furin protease assay kit
Nature of the assay: fluorogenic protease assay. It is filed as biochemical.

Assay [1] has as its target T2, SARS-CoV-2 M^pro (3CL Protease, 3CL^pro) (Severe acute respiratory syndrome coronavirus 2, UniProt P0DTD1).
T2 construct: gene rep; untagged enzyme from BPS Bioscience kit; mature main protease nsp5 cut from replicase polyprotein 1ab (pp1a/pp1ab)
Nature of the assay: biochemical.

A further assay has as its target T3, human TMPRSS2 (Homo sapiens, UniProt O15393).
T3 construct: enzyme from BPS Bioscience TMPRSS2 fluorogenic assay kit
The experiment in a line: fluorogenic protease assay. It is filed as biochemical.

T1 sequence (P09958 108-715): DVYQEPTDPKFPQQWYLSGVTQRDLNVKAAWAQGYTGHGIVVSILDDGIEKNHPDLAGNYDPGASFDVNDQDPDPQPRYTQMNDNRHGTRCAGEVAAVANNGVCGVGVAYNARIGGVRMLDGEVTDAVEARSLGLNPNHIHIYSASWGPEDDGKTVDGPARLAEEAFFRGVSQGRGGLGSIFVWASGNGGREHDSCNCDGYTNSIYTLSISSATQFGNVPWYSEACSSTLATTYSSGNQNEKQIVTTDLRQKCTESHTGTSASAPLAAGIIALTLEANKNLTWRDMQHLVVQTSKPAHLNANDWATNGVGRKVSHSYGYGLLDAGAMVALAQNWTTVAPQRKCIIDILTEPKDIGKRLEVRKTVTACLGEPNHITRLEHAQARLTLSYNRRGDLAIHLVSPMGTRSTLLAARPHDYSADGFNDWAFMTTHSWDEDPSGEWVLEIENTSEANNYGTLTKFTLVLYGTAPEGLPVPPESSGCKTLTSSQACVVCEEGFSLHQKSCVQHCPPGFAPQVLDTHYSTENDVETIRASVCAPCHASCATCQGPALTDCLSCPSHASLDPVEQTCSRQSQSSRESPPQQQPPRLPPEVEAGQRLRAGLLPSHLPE
T3 sequence (O15393 109-492 limits assumed): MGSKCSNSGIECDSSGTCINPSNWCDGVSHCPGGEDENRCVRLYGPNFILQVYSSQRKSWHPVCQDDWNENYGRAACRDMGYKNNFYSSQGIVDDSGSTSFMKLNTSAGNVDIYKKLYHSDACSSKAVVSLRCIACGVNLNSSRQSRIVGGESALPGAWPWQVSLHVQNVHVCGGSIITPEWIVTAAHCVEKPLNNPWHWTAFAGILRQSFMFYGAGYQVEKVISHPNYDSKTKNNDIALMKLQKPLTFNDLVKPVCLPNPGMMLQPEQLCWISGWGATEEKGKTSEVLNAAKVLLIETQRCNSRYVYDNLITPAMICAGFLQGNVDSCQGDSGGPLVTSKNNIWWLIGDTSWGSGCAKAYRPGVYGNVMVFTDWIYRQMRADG

As usually defined, the IC50 is the concentration that gives 50% inhibition. A higher IC50 goes with a need for much substance. Take `N=C(N/N=C/c1ccncc1)c1nonc1NCNc1nonc1C(=N)N/N=C/c1ccncc1` [M3]: the IC50 at human furin came to 90 ± 2 nM; in assay [1] it was 13 ± 3 nM; against human TMPRSS2, 50 ± 2 nM.
